# Results reported in PubChem BioAssay (NCI).
#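 Assay format: 96-well plates, 48-hour exposure. GI50 marks 50% less growth. TGI: total growth inhibition.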
# Key:
# Experiment in all cases: growth of human tumour cells (NCI), 48 h
# [1] = system: A549 NSCLC
# [2] = system: OVCAR-4 ovarian
# [3] = system: MOLT-4 leukemia
# [4] = system: MALME-3M melanoma
# [5] = system: RXF 393 renal
# [6] = system: PC-3 prostate
# [7] = system: MDA-MB-435
# [8] = system: SW-620 colon
# [9] = system: SNB-19 CNS
# [10] = system: EKVX NSCLC
# [11] = system: SF-268 CNS
# [12] = system: NCI-H460 lung
# [13] = system: HOP-62 NSCLC
# [14] = system: HL-60(TB) leukemia
# [15] = system: ACHN renal
# [16] = system: CCRF-CEM leukemia
# [17] = system: SK-MEL-2 melanoma
# [18] = system: M14 melanoma
# [19] = system: HS 578T breast
# [20] = system: MCF7 breast
# [21] = system: NCI-H226 lung
# [22] = system: UACC-257 melanoma
# [23] = system: DU-145 prostate
# [24] = system: OVCAR-3 ovarian
# [25] = system: TK-10 renal
# [26] = system: IGROV1 ovarian
# [27] = system: UACC-62 melanoma
# [28] = system: 786-0 renal
# [29] = system: SF-539 CNS
# [30] = system: SN12C renal
# [31] = system: SF-295 CNS
# [32] = system: SR leukemia
# [33] = system: CAKI-1 renal
# [34] = system: OVCAR-8 ovarian
# [35] = system: UO-31 renal
# [36] = system: MDA-MB-231 breast
# [37] = system: RPMI-8226 leukemia
# [38] = system: NCI-H522 lung
# [39] = system: HCC-2998 colon
# [40] = system: HCT-15 colon
# [41] = system: SK-OV-3 ovarian
# [42] = system: HCT-116 colon
# [43] = system: NCI/ADR-RES ovarian
# [44] = system: OVCAR-5 ovarian
# [45] = system: K-562 leukemia
# [46] = system: HT29 colon
# [47] = system: LOX IMVI melanoma
# [48] = system: U251 CNS
# [49] = system: SK-MEL-5 melanoma
# [50] = system: KM12 colon
# [51] = system: HOP-92 NSCLC
# [52] = system: NCI-H23 lung
# [53] = system: SNB-75 CNS
# [54] = system: T-47D breast
# [55] = system: SK-MEL-28 melanoma
# [56] = system: COLO 205 colon
# [57] = system: BT-549 breast
# [58] = system: A498 renal
structure (smiles),measurement,setting,value
Oc1ccc(-c2nnc3sc(-c4ccc(F)c(Oc5ccccc5)c4)nn23)cc1,GI50,[1],30.9 µM
same,TGI,[1],> 100 µM
same,GI50,[2],> 100 µM
same,TGI,[2],> 100 µM
same,GI50,[3],22.2 µM
same,TGI,[3],> 100 µM
same,GI50,[4],44.4 µM
same,TGI,[4],98.7 µM
same,GI50,[5],7.47 µM
same,TGI,[5],25.3 µM
same,GI50,[6],36.8 µM
same,TGI,[6],> 100 µM
same,GI50,[7],68.6 µM
same,TGI,[7],> 100 µM
same,GI50,[8],83 µM
same,TGI,[8],> 100 µM
same,GI50,[9],34.6 µM
same,TGI,[9],> 100 µM
same,GI50,[10],34.8 µM
same,TGI,[10],> 100 µM
same,GI50,[11],18 µM
same,TGI,[11],53.2 µM
same,GI50,[12],38.5 µM
same,TGI,[12],> 100 µM
same,GI50,[13],21.2 µM
same,TGI,[13],42.7 µM
same,GI50,[14],> 100 µM
same,TGI,[14],> 100 µM
same,GI50,[15],22.7 µM
same,TGI,[15],78.3 µM
same,GI50,[16],> 100 µM
same,TGI,[16],> 100 µM
same,GI50,[17],> 100 µM
same,TGI,[17],> 100 µM
same,GI50,[18],43.6 µM
same,TGI,[18],> 100 µM
same,GI50,[19],19.8 µM
same,TGI,[19],51.4 µM
same,GI50,[20],14.6 µM
same,TGI,[20],> 100 µM
same,GI50,[21],24.6 µM
same,TGI,[21],98.4 µM
same,GI50,[22],> 100 µM
same,TGI,[22],> 100 µM
same,GI50,[23],35 µM
same,TGI,[23],> 100 µM
same,GI50,[24],28.8 µM
same,TGI,[24],76.4 µM
same,GI50,[25],29.6 µM
same,TGI,[25],77 µM
same,GI50,[26],47.4 µM
same,TGI,[26],> 100 µM
same,GI50,[27],19.8 µM
same,TGI,[27],66.8 µM
same,GI50,[28],21.8 µM
same,TGI,[28],50.3 µM
same,GI50,[29],24.2 µM
same,TGI,[29],65 µM
same,GI50,[30],37.6 µM
same,TGI,[30],> 100 µM
same,GI50,[31],23.2 µM
same,TGI,[31],59.9 µM
same,GI50,[32],29.9 µM
same,TGI,[32],> 100 µM
same,GI50,[33],20.8 µM
same,TGI,[33],80.6 µM
same,GI50,[34],28.3 µM
same,TGI,[34],> 100 µM
same,GI50,[35],5.62 µM
same,TGI,[35],> 100 µM
same,GI50,[36],16.4 µM
same,TGI,[36],47.4 µM
same,GI50,[37],28.4 µM
same,TGI,[37],> 100 µM
same,GI50,[38],72.5 µM
same,TGI,[38],> 100 µM
same,GI50,[39],73.2 µM
same,TGI,[39],> 100000 nM
same,GI50,[40],91.2 µM
same,TGI,[40],> 100 µM
same,GI50,[41],44.6 µM
same,TGI,[41],> 100 µM
same,GI50,[42],23.5 µM
same,TGI,[42],> 100 µM
same,GI50,[43],66.5 µM
same,TGI,[43],> 100 µM
same,GI50,[44],> 100 µM
same,TGI,[44],> 100 µM
same,GI50,[45],> 100 µM
same,TGI,[45],> 100 µM
same,GI50,[46],27.4 µM
same,TGI,[46],> 100 µM
same,GI50,[47],36.7 µM
same,TGI,[47],> 100 µM
same,GI50,[48],17.5 µM
same,TGI,[48],36.5 µM
same,GI50,[49],18.6 µM
same,TGI,[49],> 100000 nM
same,GI50,[50],45.7 µM
same,TGI,[50],> 100 µM
same,GI50,[51],26.1 µM
same,TGI,[51],> 100 µM
same,GI50,[52],29.3 µM
same,TGI,[52],92.2 µM
same,GI50,[53],26.4 µM
same,TGI,[53],62.1 µM
same,GI50,[54],16.4 µM
same,TGI,[54],76.3 µM
same,GI50,[55],> 100 µM
same,TGI,[55],> 100 µM
same,GI50,[56],96 µM
same,TGI,[56],> 100 µM
CC(=O)O[C@H]1C(=O)[C@@]2(C)[C@H]([C@H](OC(=O)c3ccccc3)[C@]3(O)C[C@H](OC(=O)[C@H](OC(=O)OCCC(O)CO)[C@@H](NC(=O)c4ccccc4)c4ccccc4)C(C)=C1C3(C)C)[C@]1(OC(C)=O)CO[C@@H]1C[C@@H]2O (stereo not given in full),TGI,[1],> 100 µM
same,TGI,[2],> 100 µM
same,TGI,[3],24.9 µM
same,TGI,[5],18.5 µM
same,TGI,[6],> 100 µM
same,TGI,[8],> 55.8 µM
same,TGI,[9],> 100 µM
same,TGI,[10],> 100 µM
same,TGI,[11],> 56.9 µM
same,TGI,[12],19 µM
same,TGI,[13],19.9 µM
same,TGI,[14],< 0.01 µM
same,TGI,[15],> 62.2 µM
same,TGI,[16],12.2 µM
same,TGI,[17],> 100 µM
same,TGI,[20],14.1 µM
same,TGI,[21],< 0.01 µM
same,TGI,[22],23.3 µM
same,TGI,[24],14.5 µM
same,TGI,[25],> 44.6 µM
same,TGI,[26],34.7 µM
same,TGI,[27],20.1 µM
same,TGI,[28],33 µM
same,TGI,[29],< 0.01 µM
same,TGI,[30],33.6 µM
same,TGI,[31],0.187 µM
same,TGI,[33],62.9 µM
same,TGI,[34],> 53 µM
same,TGI,[35],> 100 µM
same,TGI,[36],21.6 µM
same,TGI,[38],< 0.01 µM
same,TGI,[57],19.1 µM
same,TGI,[39],47.1 nM
same,TGI,[58],28.9 µM
same,TGI,[40],> 35.4 µM
same,TGI,[41],> 100 µM
same,TGI,[42],11.3 µM
same,TGI,[43],> 43.4 µM
same,TGI,[44],43.5 µM
same,TGI,[45],49.8 µM
same,TGI,[46],> 100 µM
same,TGI,[47],22 µM
same,TGI,[48],19.2 µM
same,TGI,[49],613 nM
same,TGI,[50],13.1 µM
same,TGI,[51],61.6 µM
same,TGI,[52],> 37 µM
same,TGI,[53],1.28 µM
